Laboratory results: ChEMBL document CHEMBL3046213, “Repellent, insecticidal and phytotoxic activities of isoalantolactone from Inula racemosa” (Crop Prot, 2006)

How the values were obtained:
Sitophilus oryzae [1] = test: Insecticidal activity against Sitophilus oryzae (rice weevil) assessed as mortality at 2000 ug/g after 10 days by food poison technique relative to acetone-treated control; format: functional
Sitophilus oryzae [2] = test: Insecticidal activity against Sitophilus oryzae (rice weevil) assessed as mortality at 600 ug/g after 5 days by food poison technique relative to acetone-treated control; format: functional
Triticum aestivum [3] = test: Phytotoxicity in Triticum aestivum (wheat) assessed as root growth at 500 ug/ml pre-soaked for 60 min measured after 72 hr relative to acetone-treated control; format: organism-based; settings: in vivo
Sitophilus oryzae [4] = test: Insecticidal activity against Sitophilus oryzae (rice weevil) assessed as mortality at 0.05 ug/g after 5 days by food poison technique relative to acetone-treated control; format: functional
Sitophilus oryzae [5] = test: Repellent activity against Sitophilus oryzae (rice weevil) assessed as settling responses at 75 ug/g preincubated for 12 hr prior to inoculation measured after 24 hr by food preference chamber method (reference value: 49.45 +/- 2.65 %); format: functional
Triticum aestivum [6] = test: Phytotoxicity in Triticum aestivum (wheat) assessed as germination rate at 500 ug/ml pre-soaked for 30 min measured after 24 hr relative to acetone-treated control; format: organism-based; settings: in vivo
Triticum aestivum [7] = test: Phytotoxicity in Triticum aestivum (wheat) assessed as shoot growth at 500 ug/ml pre-soaked for 30 min measured after 48 hr relative to acetone-treated control; format: organism-based; settings: in vivo
Triticum aestivum [8] = test: Phytotoxicity in Triticum aestivum (wheat) assessed as root growth at 500 ug/ml pre-soaked for 30 min measured after 120 hr relative to acetone-treated control; format: organism-based; settings: in vivo
Sitophilus oryzae [9] = test: Insecticidal activity against Sitophilus oryzae (rice weevil) assessed as mortality at 400 ug/g after 10 days by food poison technique relative to acetone-treated control; format: functional
Sitophilus oryzae [10] = test: Insecticidal activity against Sitophilus oryzae (rice weevil) assessed as mortality at 400 ug/g after 20 days by food poison technique relative to acetone-treated control; format: functional
Triticum aestivum [11] = test: Phytotoxicity in Triticum aestivum (wheat) assessed as root growth at 500 ug/ml pre-soaked for 30 min measured after 48 hr relative to acetone-treated control; format: organism-based; settings: in vivo
Sitophilus oryzae [12] = test: Insecticidal activity against Sitophilus oryzae (rice weevil) assessed as mortality after 5 days by food poison technique; format: functional
Triticum aestivum [13] = test: Phytotoxicity in Triticum aestivum (wheat) assessed as germination rate at 500 ug/ml pre-soaked for 30 min measured after 72 hr relative to acetone-treated control; format: organism-based; settings: in vivo
Sitophilus oryzae [14] = test: Insecticidal activity against Sitophilus oryzae (rice weevil) assessed as mortality after 10 days by food poison technique; format: functional
Triticum aestivum [15] = test: Phytotoxicity in Triticum aestivum (wheat) assessed as shoot growth at 500 ug/ml pre-soaked for 60 min measured after 96 hr relative to acetone-treated control; format: organism-based; settings: in vivo
Sitophilus oryzae [16] = test: Insecticidal activity against Sitophilus oryzae (rice weevil) assessed as mortality at 600 ug/g after 10 days by food poison technique relative to acetone-treated control; format: functional
Sitophilus oryzae [17] = test: Insecticidal activity against Sitophilus oryzae (rice weevil) assessed as mortality at 200 ug/g after 10 days by food poison technique relative to control; format: functional
Sitophilus oryzae [18] = test: Insecticidal activity against Sitophilus oryzae (rice weevil) assessed as mortality at 200 ug/g after 5 days by food poison technique relative to acetone-treated control; format: functional
Sitophilus oryzae [19] = test: Insecticidal activity against Sitophilus oryzae (rice weevil) assessed as mortality at 1000 ug/g after 10 days by food poison technique relative to acetone-treated control; format: functional
Sitophilus oryzae [20] = test: Insecticidal activity against Sitophilus oryzae (rice weevil) assessed as mortality at 400 ug/g after 5 days by food poison technique relative to acetone-treated control; format: functional
Triticum aestivum [21] = test: Phytotoxicity in Triticum aestivum (wheat) assessed as shoot growth at 500 ug/ml pre-soaked for 60 min measured after 72 hr relative to acetone-treated control; format: organism-based; settings: in vivo
Sitophilus oryzae [22] = test: Insecticidal activity against Sitophilus oryzae (rice weevil) assessed as mortality at 2000 ug/g after 20 days by food poison technique relative to acetone-treated control; format: functional
Sitophilus oryzae [23] = test: Insecticidal activity against Sitophilus oryzae (rice weevil) assessed as mortality at 1000 ug/g after 15 days by food poison technique relative to acetone-treated control; format: functional
Triticum aestivum [24] = test: Phytotoxicity in Triticum aestivum (wheat) assessed as shoot growth at 500 ug/ml pre-soaked for 30 min measured after 120 hr relative to acetone-treated control; format: organism-based; settings: in vivo
Sitophilus oryzae [25] = test: Insecticidal activity against Sitophilus oryzae (rice weevil) assessed as mortality at 1000 ug/g after 20 days by food poison technique relative to acetone-treated control; format: functional
Triticum aestivum [26] = test: Phytotoxicity in Triticum aestivum (wheat) assessed as germination rate at 500 ug/ml pre-soaked for 60 min measured after 72 hr relative to acetone-treated control; format: organism-based; settings: in vivo
Triticum aestivum [27] = test: Phytotoxicity in Triticum aestivum (wheat) assessed as root growth at 500 ug/ml pre-soaked for 30 min measured after 72 hr relative to acetone-treated control; format: organism-based; settings: in vivo
Sitophilus oryzae [28] = test: Repellent activity against Sitophilus oryzae (rice weevil) assessed as settling responses at 50 ug/g preincubated for 12 hr prior to inoculation measured after 24 hr by food preference chamber method (reference value: 49.45 +/- 2.65 %); format: functional
Triticum aestivum [29] = test: Phytotoxicity in Triticum aestivum (wheat) assessed as germination rate at 500 ug/ml pre-soaked for 60 min measured after 48 hr relative to acetone-treated control; format: organism-based; settings: in vivo
Triticum aestivum [30] = test: Phytotoxicity in Triticum aestivum (wheat) assessed as shoot growth at 500 ug/ml pre-soaked for 60 min measured after 48 hr relative to acetone-treated control; format: organism-based; settings: in vivo
Triticum aestivum [31] = test: Phytotoxicity in Triticum aestivum (wheat) assessed as germination rate at 500 ug/ml pre-soaked for 60 min measured after 24 hr relative to acetone-treated control; format: organism-based; settings: in vivo

C=C1C(=O)O[C@@H]2C[C@@]3(C)CCCC(=C)[C@@H]3C[C@H]12 [ISOALANTOLACTONE]
mortality (Sitophilus oryzae [1]): 100%
mortality (Sitophilus oryzae [2]): 33.33%
Activity (Triticum aestivum [3]): 63.7%
mortality (Sitophilus oryzae [4]): 86.54%
Activity (Sitophilus oryzae [5]): 12.41%
Activity (Triticum aestivum [6]): 106.7%
Activity (Triticum aestivum [7]): 100%
Activity (Triticum aestivum [8]): 101.2%
mortality (Sitophilus oryzae [9]): 23.81%
mortality (Sitophilus oryzae [10]): 35.91%
Activity (Triticum aestivum [11]): 100.7%
LC50 (Sitophilus oryzae [12]): 1234.57 µg/g
Activity (Triticum aestivum [13]): 100%
LC50 (Sitophilus oryzae [14]): 707.21 µg/g
Activity (Triticum aestivum [15]): 47.9%
mortality (Sitophilus oryzae [16]): 55.38%
mortality (Sitophilus oryzae [17]): 16.67%
mortality (Sitophilus oryzae [18]): 11.9%
mortality (Sitophilus oryzae [19]): 64.28%
mortality (Sitophilus oryzae [20]): 19.04%
Activity (Triticum aestivum [21]): 51.7%
mortality (Sitophilus oryzae [22]): 100%
mortality (Sitophilus oryzae [23]): 69.23%
Activity (Triticum aestivum [24]): 100.4%
mortality (Sitophilus oryzae [25]): 74.36%
Activity (Triticum aestivum [26]): 84.6%
Activity (Triticum aestivum [27]): 97.4%
Activity (Sitophilus oryzae [28]): 12.87%
Activity (Triticum aestivum [29]): 76.1%
Activity (Triticum aestivum [30]): 53.7%
Activity (Triticum aestivum [31]): 25%
